Laboratory results reported in the supplement of paper PMC10307832.

Tests used:
Assay in all cases: relative viability (nuclei count vs DMSO), 5 days (fraction); higher = more cells survive
201T = test system: 201T
Method in brief: (§1)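 Each reported value is a median over duplicate plates. It expresses relative viability: treated-well nuclei count divided by vehicle-well nuclei count. Lung cancer cell lines in 1536-well plates were dosed by pin tool a day after seeding, alone with one drug or with a fixed anchor-drug dose plus five library-drug doses (not always all listed) in √10 steps, and nuclei were counted after 5 days.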

BEN = test system: BEN
Method in brief: as §1

EMC-BAC-2 = test system: EMC-BAC-2
Method in brief: as §1

HARA = test system: HARA
Method in brief: as §1

HCC-44 = test system: HCC-44
Method in brief: as §1

LCLC-103H = test system: LCLC-103H
Method in brief: as §1

LOU-NH91 = test system: LOU-NH91
Method in brief: as §1

NCI-H1395 = test system: NCI-H1395
Method in brief: as §1

NCI-H1993 = test system: NCI-H1993
Method in brief: as §1

NCI-H2023 = test system: NCI-H2023
Method in brief: as §1

NCI-H2087 = test system: NCI-H2087
Method in brief: as §1

NCI-H2126 = test system: NCI-H2126
Method in brief: as §1

NCI-H2347 = test system: NCI-H2347
Method in brief: as §1

NCI-H23 = test system: NCI-H23
Method in brief: as §1

NCI-H3122 = test system: NCI-H3122
Method in brief: as §1

NCI-H441 = test system: NCI-H441
Method in brief: as §1

NCI-H522 = test system: NCI-H522
Method in brief: as §1

NCI-H596 = test system: NCI-H596
Method in brief: as §1

NCI-H647 = test system: NCI-H647
Method in brief: as §1

NCI-H650 = test system: NCI-H650
Method in brief: as §1

NCI-H727 = test system: NCI-H727
Method in brief: as §1

NCI-H838 = test system: NCI-H838
Method in brief: as §1

## O=c1cc(-c2cccc3c2Sc2ccccc2S3)oc(N2CCOCC2)c1 + O=C(CCCCCCC(=O)Nc1ccccc1)NO [Vorinostat] (partner 1 µM)
201T; first compound 0.08 µM
  relative viability: 0.919
201T; first compound 0.253 µM
  relative viability: 1.05
201T; first compound 0.8 µM
  relative viability: 0.976
201T; first compound 2.53 µM
  relative viability: 0.912
201T; first compound 8 µM
  relative viability: 0.884
BEN; first compound 0.08 µM
  relative viability: 0.521
BEN; first compound 0.253 µM
  relative viability: 0.645
BEN; first compound 0.8 µM
  relative viability: 0.594
BEN; first compound 2.53 µM
  relative viability: 0.59
BEN; first compound 8 µM
  relative viability: 0.629
EMC-BAC-2; first compound 0.08 µM
  relative viability: 0.35
EMC-BAC-2; first compound 0.253 µM
  relative viability: 0.471
EMC-BAC-2; first compound 0.8 µM
  relative viability: 0.524
EMC-BAC-2; first compound 2.53 µM
  relative viability: 0.607
EMC-BAC-2; first compound 8 µM
  relative viability: 0.48
HARA; first compound 0.08 µM
  relative viability: 0.538
HARA; first compound 0.253 µM
  relative viability: 0.59
HARA; first compound 0.8 µM
  relative viability: 0.442
HARA; first compound 8 µM
  relative viability: 0.36
HCC-44; first compound 0.08 µM
  relative viability: 1.13
HCC-44; first compound 0.253 µM
  relative viability: 1.05
HCC-44; first compound 0.8 µM
  relative viability: 1.17
HCC-44; first compound 2.53 µM
  relative viability: 1.05
HCC-44; first compound 8 µM
  relative viability: 1.08
LCLC-103H; first compound 0.08 µM
  relative viability: 0.757
LCLC-103H; first compound 0.253 µM
  relative viability: 0.814
LCLC-103H; first compound 0.8 µM
  relative viability: 0.66
LCLC-103H; first compound 2.53 µM
  relative viability: 0.727
LCLC-103H; first compound 8 µM
  relative viability: 0.864
LOU-NH91; first compound 0.08 µM
  relative viability: 0.91
LOU-NH91; first compound 0.253 µM
  relative viability: 0.943
LOU-NH91; first compound 0.8 µM
  relative viability: 0.854
LOU-NH91; first compound 2.53 µM
  relative viability: 0.745
LOU-NH91; first compound 8 µM
  relative viability: 0.898
NCI-H1395; first compound 0.08 µM
  relative viability: 0.636
NCI-H1395; first compound 0.253 µM
  relative viability: 0.625
NCI-H1395; first compound 0.8 µM
  relative viability: 0.777
NCI-H1395; first compound 2.53 µM
  relative viability: 0.669
NCI-H1395; first compound 8 µM
  relative viability: 0.759
NCI-H1993; first compound 0.08 µM
  relative viability: 0.723
NCI-H1993; first compound 0.253 µM
  relative viability: 0.843
NCI-H1993; first compound 0.8 µM
  relative viability: 0.908
NCI-H1993; first compound 2.53 µM
  relative viability: 0.755
NCI-H1993; first compound 8 µM
  relative viability: 0.736
NCI-H2023; first compound 0.08 µM
  relative viability: 0.707
NCI-H2023; first compound 0.253 µM
  relative viability: 0.752
NCI-H2023; first compound 0.8 µM
  relative viability: 0.718
NCI-H2023; first compound 2.53 µM
  relative viability: 0.583
NCI-H2023; first compound 8 µM
  relative viability: 0.451
NCI-H2087; first compound 0.08 µM
  relative viability: 0.862
NCI-H2087; first compound 0.253 µM
  relative viability: 0.757
NCI-H2087; first compound 0.8 µM
  relative viability: 1.09
NCI-H2087; first compound 2.53 µM
  relative viability: 0.727
NCI-H2087; first compound 8 µM
  relative viability: 0.917
NCI-H2126; first compound 0.08 µM
  relative viability: 0.722
NCI-H2126; first compound 0.253 µM
  relative viability: 0.781
NCI-H2126; first compound 0.8 µM
  relative viability: 0.792
NCI-H2126; first compound 2.53 µM
  relative viability: 0.823
NCI-H2126; first compound 8 µM
  relative viability: 0.74
NCI-H2347; first compound 0.08 µM
  relative viability: 0.606
NCI-H2347; first compound 0.253 µM
  relative viability: 0.609
NCI-H2347; first compound 0.8 µM
  relative viability: 0.548
NCI-H2347; first compound 2.53 µM
  relative viability: 0.499
NCI-H2347; first compound 8 µM
  relative viability: 0.46
NCI-H23; first compound 0.08 µM
  relative viability: 0.477
NCI-H23; first compound 0.253 µM
  relative viability: 0.593
NCI-H23; first compound 0.8 µM
  relative viability: 0.669
NCI-H23; first compound 2.53 µM
  relative viability: 0.543
NCI-H23; first compound 8 µM
  relative viability: 0.516
NCI-H3122; first compound 0.08 µM
  relative viability: 0.99
NCI-H3122; first compound 0.253 µM
  relative viability: 1.2
NCI-H3122; first compound 0.8 µM
  relative viability: 1.09
NCI-H3122; first compound 2.53 µM
  relative viability: 0.93
NCI-H3122; first compound 8 µM
  relative viability: 1.05
NCI-H441; first compound 0.08 µM
  relative viability: 0.921
NCI-H441; first compound 0.253 µM
  relative viability: 1.01
NCI-H441; first compound 0.8 µM
  relative viability: 1.14
NCI-H441; first compound 2.53 µM
  relative viability: 0.838
NCI-H441; first compound 8 µM
  relative viability: 0.935
NCI-H522; first compound 0.08 µM
  relative viability: 0.952
NCI-H522; first compound 0.253 µM
  relative viability: 0.909
NCI-H522; first compound 0.8 µM
  relative viability: 0.811
NCI-H522; first compound 2.53 µM
  relative viability: 0.736
NCI-H522; first compound 8 µM
  relative viability: 1
NCI-H596; first compound 0.08 µM
  relative viability: 0.51
NCI-H596; first compound 0.253 µM
  relative viability: 0.749
NCI-H596; first compound 0.8 µM
  relative viability: 0.585
NCI-H596; first compound 2.53 µM
  relative viability: 0.575
NCI-H596; first compound 8 µM
  relative viability: 0.717
NCI-H647; first compound 0.08 µM
  relative viability: 0.527
NCI-H647; first compound 0.253 µM
  relative viability: 0.691
NCI-H647; first compound 0.8 µM
  relative viability: 0.766
NCI-H647; first compound 2.53 µM
  relative viability: 0.638
NCI-H647; first compound 8 µM
  relative viability: 0.782
NCI-H650; first compound 0.08 µM
  relative viability: 0.473
NCI-H650; first compound 0.253 µM
  relative viability: 0.478
NCI-H650; first compound 0.8 µM
  relative viability: 0.393
NCI-H650; first compound 2.53 µM
  relative viability: 0.345
NCI-H650; first compound 8 µM
  relative viability: 0.458
NCI-H727; first compound 0.08 µM
  relative viability: 1.01
NCI-H727; first compound 0.253 µM
  relative viability: 1.29
NCI-H727; first compound 2.53 µM
  relative viability: 1.09
NCI-H727; first compound 8 µM
  relative viability: 1.24
NCI-H838; first compound 0.08 µM
  relative viability: 0.746
NCI-H838; first compound 0.253 µM
  relative viability: 0.739
NCI-H838; first compound 0.8 µM
  relative viability: 0.831
NCI-H838; first compound 2.53 µM
  relative viability: 0.636
NCI-H838; first compound 8 µM
  relative viability: 0.535
